# Where two headings read alike, the source gives them in different places.
# How the values were obtained:
# [1] = molecular target: T1, rat GPR14 (U-II receptor) (Rattus norvegicus, UniProt P49684); assay: Rat UII Calcium Mobilization FLIPR Assay; assay type: cell-based; conditions: average value for the compound tested; read-out: Rat UII FLIPR Average IC50
# T1 construct: expressed in transfected cells
# T1 sequence (P49684 1-386): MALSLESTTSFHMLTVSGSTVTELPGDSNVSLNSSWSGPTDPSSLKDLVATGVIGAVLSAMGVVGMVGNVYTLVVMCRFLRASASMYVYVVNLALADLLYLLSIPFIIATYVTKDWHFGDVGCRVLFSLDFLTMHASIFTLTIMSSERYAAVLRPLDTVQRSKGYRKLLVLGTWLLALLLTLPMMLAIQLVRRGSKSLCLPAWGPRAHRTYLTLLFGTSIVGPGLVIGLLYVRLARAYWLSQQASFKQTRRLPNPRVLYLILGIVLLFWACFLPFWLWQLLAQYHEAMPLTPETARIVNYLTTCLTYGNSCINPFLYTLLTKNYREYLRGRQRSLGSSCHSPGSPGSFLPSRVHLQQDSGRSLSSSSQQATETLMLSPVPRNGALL
# Outline: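 CHO cells stably expressing rat U-II receptor, seeded 24 h before assay, were loaded with FLIPR calcium dye in HBSS/20 mM HEPES/0.1% BSA/2.5 mM probenecid, pH 7.4, for 1 h at 37° C. Calcium mobilization then read by FLIPR at 23° C.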
# [2] = molecular target: T2, Human UII receptor, 6D9 human rhabdomyosarcoma cells (Homo sapiens, UniProt Q9UKP6); assay: Human UII Calcium Mobilization Assay; assay type: cell-based; conditions: average value, FLIPR TETRA, read-out: Human UII Ca^+ Mobilization Average IC50
# T2 construct: 6D9: isolated by dilution subcloning of RMS13 cells, ATCC® Number: CRL-2061; host or cells: 6D9 human rhabdomyosarcoma cells (subclone of RMS13)
# T2 sequence (Q9UKP6 1-389): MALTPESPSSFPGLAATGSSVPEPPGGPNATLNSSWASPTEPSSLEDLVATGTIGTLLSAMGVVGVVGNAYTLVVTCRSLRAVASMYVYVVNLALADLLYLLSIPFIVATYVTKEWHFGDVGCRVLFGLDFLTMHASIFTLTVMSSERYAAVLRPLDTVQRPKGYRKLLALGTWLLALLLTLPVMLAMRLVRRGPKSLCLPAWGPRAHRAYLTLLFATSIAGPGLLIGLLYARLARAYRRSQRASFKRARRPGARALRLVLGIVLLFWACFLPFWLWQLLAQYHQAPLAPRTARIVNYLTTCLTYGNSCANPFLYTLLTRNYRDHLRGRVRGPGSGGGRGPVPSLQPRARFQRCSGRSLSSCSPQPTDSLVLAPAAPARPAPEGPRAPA
# Outline: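 6D9 rhabdomyosarcoma cells loaded 45 min at 37° C with calcium dye (1.25 mM probenecid, 0.01% FBS, HBSS/20 mM HEPES). Antagonist and U-II agonist added at room temperature; FLIPR fluorescence read over 4 min; EC50/IC50 fitted. DMSO ≤0.1% final.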
# [3] = molecular target: T3, endogenous human UII receptor (Homo sapiens, UniProt Q9UKP6); assay: Human Radioligand Binding Assay ((^125I)-U-II binding to human skeletal muscle myoblasts)
# T3 sequence (Q9UKP6 1-389): T2 sequence (Q9UKP6 1-389)
# [4] = read-out: Human UII Average Binding Ki, average value, (^125I)-U-II binding to human skeletal muscle myoblasts (HSMM), 25° C., 3 h
Compound,IC50 [1],IC50 [2],Ki [3],"Ki [3, 4]"
"COc1ccc([C@@H](CCCNS(=O)(=O)c2cccs2)N2C(=O)c3cccc(N4CCN(C5CCCCC5)CC4)c3C2=O)cc1OC [Cpd 196, (R)-thiophene-2-sulfonic acid [4-[4-(4-cyclohexyl-piperazin-1-yl)-1,3-dioxo-1,3-dihydro-isoindol-2-yl]-4-(3,4-dimethoxy-phenyl)-butyl]-amide]",22 nM,1200 nM,380 nM,
"CCN1CCN(c2cccc3c2C(=O)N([C@H](CCCNC(=O)OC(C)(C)C)c2ccc(OC)c(OC)c2)C3=O)CC1 [Cpd 197, (R)-{4-(3,4-dimethoxy-phenyl)-4-[4-(4-ethyl-piperazin-1-yl)-1,3-dioxo-1,3-dihydro-isoindol-2-yl]-butyl}-carbamic acid tert-butyl ester]",82 nM,540 nM,220 nM,
"COc1ccc([C@@H](CCCNS(=O)(=O)c2cccs2)N2C(=O)c3cccc(N4CCN(C(C)C)CC4)c3C2=O)cc1OC [Cpd 198, (R)-thiophene-2-sulfonic acid {4-(3,4-dimethoxy-phenyl)-4-[4-(4-isopropyl-piperazin-1-yl)-1,3-dioxo-1,3-dihydro-isoindol-2-yl]-butyl}-amide]",3.5 nM,150 nM,,45 nM
"COc1ccc([C@@H](CCCNC(=O)C(C#N)C(C)=O)N2C(=O)c3cccc(N4CCN([C@H](C)c5ccccc5)CC4)c3C2=O)cc1OC (stereo partly drawn) [Cpd 199, (R)-2-cyano-N-(4-(3,4-dimethoxy-phenyl)-4-{1,3-dioxo-4-[4-(1R)-(1-phenyl-ethyl)-piperazin-1-yl]-1,3-dihydro-isoindol-2-yl}-butyl)-3-oxo-butyramide]",9.3 nM,160 nM,27 nM,
"CCN1CCN(c2cccc3c2C(=O)N([C@H](CCCOCc2ccccc2)c2ccc(OC)c(OC)c2)C3=O)CC1 [Cpd 201, (R)-2-[4-benzyloxy-1-(3,4-dimethoxy-phenyl)-butyl]-4-(4-ethyl-piperazin-1-yl)-isoindole-1,3-dione]",49 nM,> 3000 nM,210 nM,
"CCN1CCN(c2cccc3c2C(=O)N([C@H](CCCNC(=O)C2CCC2)c2ccc(OC)c(OC)c2)C3=O)CC1 [Cpd 202, (R)-cyclobutanecarboxylic acid {4-(3,4-dimethoxy-phenyl)-4-[4-(4-ethyl-piperazin-1-yl)-1,3-dioxo-1,3-dihydro-isoindol-2-yl]-butyl}-amide]",120 nM,960 nM,150 nM,
"CCN1CCN(c2cccc3c2C(=O)N([C@H](CCCNS(=O)(=O)c2cn(C)c(C)n2)c2ccc(OC)c(OC)c2)C3=O)CC1 [Cpd 203, (R)-1,2-dimethyl-1H-imidazole-4-sulfonic acid {4-(3,4-dimethoxy-phenyl)-4-[4-(4-ethyl-piperazin-1-yl)-1,3-dioxo-1,3-dihydro-isoindol-2-yl]-butyl}-amide]",140 nM,810 nM,,97 nM
"CCN1CCN(c2cccc3c2C(=O)N([C@H](CCCO)c2ccc(OC)c(OC)c2)C3=O)CC1 [Cpd 206, (R)-2-[1-(3,4-dimethoxy-phenyl)-4-hydroxy-butyl]-4-(4-ethyl-piperazin-1-yl)-isoindole-1,3-dione]",690 nM,680 nM,66 nM,
"CCOCCC[C@H](c1ccc(OC)c(OC)c1)N1C(=O)c2cccc(N3CCN(CC)CC3)c2C1=O [Cpd 207, (R)-2-[1-(3,4-dimethoxy-phenyl)-4-ethoxy-butyl]-4-(4-ethyl-piperazin-1-yl)-isoindole-1,3-dione]",200 nM,1400 nM,> 300 nM,
"CCN1CCN(c2cccc3c2C(=O)N([C@H](CCCOCC(C)C)c2ccc(OC)c(OC)c2)C3=O)CC1 [Cpd 210, (R)-2-[1-(3,4-dimethoxy-phenyl)-4-isobutoxy-butyl]-4-(4-ethyl-piperazin-1-yl)-isoindole-1,3-dione]",6200 nM,> 10000 nM,> 300 nM,
"COc1ccc([C@@H](CCNC(=O)c2csc(C)n2)N2C(=O)c3cccc(N4CCN([C@H](C)c5ccccc5)CC4)c3C2=O)cc1OC [Cpd 211, (R)-2-methyl-thiazole-4-carboxylic acid (3-(3,4-dimethoxy-phenyl)-3-{1,3-dioxo-4-[4-(1R)-(1-phenyl-ethyl)-piperazin-1-yl]-1,3-dihydro-isoindol-2-yl}-propyl)-amide]",19 nM,1200 nM,89 nM,
"COc1ccc([C@@H](CCCNC(=O)C(F)(F)F)N2C(=O)c3cccc(N4CCN([C@H](C)c5ccccc5)CC4)c3C2=O)cc1OC [Cpd 212, (R)-N-(4-(3,4-dimethoxy-phenyl)-4-{1,3-dioxo-4-[4-(1R)-(1-phenyl-ethyl)-piperazin-1-yl]-1,3-dihydro-isoindol-2-yl}-butyl)-2,2,2-trifluoro-acetamide]",19 nM,790 nM,26 nM,
"COc1ccc([C@@H](CCCNC(=O)COC(C)(C)C)N2C(=O)c3cccc(N4CCN([C@H](C)c5ccccc5)CC4)c3C2=O)cc1OC [Cpd 213, (R)-2-tert-butoxy-N-(4-(3,4-dimethoxy-phenyl)-4-{1,3-dioxo-4-[4-(1R)-(1-phenyl-ethyl)-piperazin-1-yl]-1,3-dihydro-isoindol-2-yl}-butyl)-acetamide]",17 nM,730 nM,54 nM,
"CCN1CCN(c2cccc3c2C(=O)N([C@H](CCCOCc2cccs2)c2ccc(OC)c(OC)c2)C3=O)CC1 [Cpd 214, (R)-2-[1-(3,4-dimethoxy-phenyl)-4-(thiophen-2-ylmethoxy)-butyl]-4-(4-ethyl-piperazin-1-yl)-isoindole-1,3-dione]",9500 nM,> 10000 nM,> 300 nM,
"COc1ccc([C@@H](CCCNC(=O)c2c(C)n[nH]c2C)N2C(=O)c3cccc(N4CCN([C@H](C)c5ccccc5)CC4)c3C2=O)cc1OC [Cpd 215, (R)-3,5-dimethyl-1H-pyrazole-4-carboxylic acid (4-(3,4-dimethoxy-phenyl)-4-{1,3-dioxo-4-[4-(1R)-(1-phenyl-ethyl)-piperazin-1-yl]-1,3-dihydro-isoindol-2-yl}-butyl)-amide]",11 nM,37 nM,,87 nM
"COc1ccc([C@@H](CCNC(=O)c2cnoc2C)N2C(=O)c3cccc(N4CCN([C@H](C)c5ccccc5)CC4)c3C2=O)cc1OC [Cpd 217, (R)-5-methyl-isoxazole-4-carboxylic acid (3-(3,4-dimethoxy-phenyl)-3-{1,3-dioxo-4-[4-(1R)-(1-phenyl-ethyl)-piperazin-1-yl]-1,3-dihydro-isoindol-2-yl}-propyl)-amide]",14 nM,1000 nM,32 nM,
"CCN1CCN(c2cccc3c2C(=O)N([C@H](CCCOCC(=O)O)c2ccc(OC)c(OC)c2)C3=O)CC1 [Cpd 218, (R)-{4-(3,4-dimethoxy-phenyl)-4-[4-(4-ethyl-piperazin-1-yl)-1,3-dioxo-1,3-dihydro-isoindol-2-yl]-butoxy}-acetic acid]",240 nM,2400 nM,> 300 nM,
"COc1ccc([C@@H](CCNS(=O)(=O)c2cn(C)c(C)n2)N2C(=O)c3cccc(N4CCN([C@H](C)c5ccccc5)CC4)c3C2=O)cc1OC [Cpd 219, (R)-1,2-dimethyl-1H-imidazole-4-sulfonic acid (3-(3,4-dimethoxy-phenyl)-3-{1,3-dioxo-4-[4-(1R)-(1-phenyl-ethyl)-piperazin-1-yl]-1,3-dihydro-isoindol-2-yl}-propyl)-amide]",22 nM,1000 nM,44 nM,
"COc1ccc([C@@H](CCNS(=O)(=O)O)N2C(=O)c3cccc(N4CCN([C@H](C)c5ccccc5)CC4)c3C2=O)cc1OC [Cpd 220, (R)-(3-(3,4-dimethoxy-phenyl)-3-{1,3-dioxo-4-[4-(1R)-(1-phenyl-ethyl)-piperazin-1-yl]-1,3-dihydro-isoindol-2-yl}-propyl)-sulfamic acid]",23 nM,170 nM,11 nM,
